In paper PMC4330696, “Characterization of the serine acetyltransferase gene family of Vitis vinifera uncovers differences in regulation of OAS synthesis in woody plants” (Frontiers in Plant Science, 2015):

What was measured:
VvSERAT2;1 = target: T1, VvSERAT2;1 (Vitis vinifera, UniProt F6HCV5); assay: SERAT activity assay, titration with cysteine up to […]; format: biochemical; conditions: read-out: Cys Inhibition (IC50 mM)
T1 construct: gene VIT_00s0194g00120; N-terminal His tag (pET28a), E. coli; lacks predicted transit peptide (57 residues predicted); naturally lacks canonical C-terminal tail; free SERAT without OASTL
T1 sequence (F6HCV5 58-306): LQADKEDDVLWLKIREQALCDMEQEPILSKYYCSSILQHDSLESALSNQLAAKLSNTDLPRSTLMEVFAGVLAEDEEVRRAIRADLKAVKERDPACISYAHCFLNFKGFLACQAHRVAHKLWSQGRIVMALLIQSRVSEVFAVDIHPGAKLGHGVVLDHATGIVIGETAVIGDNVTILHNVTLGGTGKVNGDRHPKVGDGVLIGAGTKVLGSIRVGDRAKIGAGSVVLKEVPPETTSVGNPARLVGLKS

AtOASTL-B = target: T2, AtOASTL-B (Arabidopsis thaliana, UniProt P47999); assay: OASTL activity assay (Gaitonde); […]-1 pmol enzyme, turnover only; format: biochemical; conditions: co-substrate sulfide; control without SERAT
T2 construct: gene OASB; recombinant, expressed in E. coli (Wirtz et al. 2004)
T2 sequence (P47999 61-392): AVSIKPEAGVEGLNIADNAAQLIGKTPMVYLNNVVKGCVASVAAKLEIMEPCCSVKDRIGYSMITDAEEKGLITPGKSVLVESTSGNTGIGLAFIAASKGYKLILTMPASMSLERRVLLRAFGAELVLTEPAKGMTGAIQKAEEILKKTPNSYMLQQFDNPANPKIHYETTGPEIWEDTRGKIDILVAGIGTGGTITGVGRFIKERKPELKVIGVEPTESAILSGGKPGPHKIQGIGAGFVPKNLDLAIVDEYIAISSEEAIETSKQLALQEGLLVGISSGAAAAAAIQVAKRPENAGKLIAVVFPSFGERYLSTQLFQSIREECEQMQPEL

| IC50 (VvSERAT2;1) [mM] | Structure (SMILES) | OASTL activity (AtOASTL-B) |
| --- | --- | --- |
| 1.9 ± 0.56 | N[C@@H](CS)C(=O)O [L-Cys] | – |
| – | CC(=O)OC[C@H](N)C(=O)O [O-acetylserine] | Enzymatic activity of OASTL was determined according to Gaitonde |
